From patent publication EP4653017A1, “ANTIBODY-DRUG CONJUGATE AND USE THEREOF” (Tyligand Bioscience (Shanghai) Limited, priority 2023, dated 2024)
Counter-ions that a name gives are not always drawn. Like-named read-outs stand apart in the source and are kept apart here.

Key:
THP-1 cells = test: Activation of IFN-β secretion by THP-1 cells (IFN-beta ELISA); assay type: cell-based, human; conditions: for STING agonist activity (in words): EC50 stronger than 2',3'-cGAMP, comparable to ADU-S100; for EC50: read-out: THP-1 activity
CT26 cells [1] = test: Inhibition of CT26 cell proliferation (CellTiter-Glo); assay type: cell-based, mouse; conditions: for inhibitory ability on growth of CT26 tumor cells in vitro (in words): superior to ADU-S100; for IC50: read-out: CT-26 activity
Protocol: CT26 cells are a mouse colorectal cancer cell line. In this experiment, CellTiter-Glo Luminescence Cell Viability Assay kit from Promega was used to assess the inhibitory activity of the compounds on CT26 cell proliferation.
When CT26 cells (ATCC #CRL-2638) were revived, the cryovial was rapid shaken in a 37°C water bath to thaw with 1 min. The thawed cell suspension was mixed well with DMEM medium (GE Company, Cat. No. #SH30243.01) containing 10% FBS (GIBCO, Cat. No. #10099-141), centrifuged at 1000 rpm for 5 min, and the supernatant was discarded. The cell pellet was resuspended in 5 mL of complete medium (DMEM medium containing 10% FBS), placed in a cell culture flask with a bottom area of 25 cm^2, and cultured in a cell incubator at 37°C, 5% CO2, and 95% humidity. Passage was performed when the confluence rate of cells reached 70%~80%. Referring to the cell passage method at plating, all cells in the flask were transferred to a 15 mL centrifuge tube, centrifuged at 1000 rpm for 5 minutes, and the supernatant was discarded. The cell pellet was resuspended in 5 mL of new complete medium, 1 mL was placed in a cell culture flask with a bottom area of 25 cm^2, and 4 mL of fresh complete medium was added to continue the culture. Plating was performed when the cell confluence rate of cells reached 70% to 80% again. Referring to the cell passage method at plating, 1/5 of the cell suspension was maintained and the remaining 4/5 of the cell suspension was placed in a 15 mL centrifuge tube. The cells were centrifuged, the old medium was discarded, the cells was washed once with DMEM medium (without serum), and centrifuged to remove the supernatant. Cells were resuspended with DMEM medium (without serum). […]. A cell suspension at a density of 1.1 x 10^4 viable cells/mL was prepared using DMEM medium (without serum) and 90 µL of the cell suspension was added to 96-well clear flat-bottom black-walled cell culture plate wells (Corning, Cat. No. #3603) to yield a cell density of 1000 viable cells/well in the plate. A control group without cells, without compounds, and with complete medium only (i.e., culture medium control) was set up, and a control group without compounds and with cells (i.e., cell control) was set up. The plates were incubated overnight in a cell incubator.
A DMSO stock solution of 10 mM compound was first serially diluted at a 3.16-fold dilution ratio with DMSO (Sigma, Cat. No. #D2650) to a ninth concentration and a tenth concentration of DMSO control without compound was set. DMSO solutions containing different concentrations of the compound were then diluted a 10-fold dilution ratio with PBS (Solarbio company, Cat. No. #P1020) to achieve a DMSO content of 10% in each concentration of the compound solution. Finally, 10 µL of the above solution was added to the corresponding cell culture plate to achieve a starting concentration of 100 µM compound, a 3.16-fold dilution ratio of adjacent concentrations, and a DMSO content of 1% in the cell culture plate. The plates were maintained in a cell incubator for an additional 120 hours.
After 120 hours, the CellTiter-Glo reagent (Promega, Cat. No. #G7572) was thawed and the plate was equilibrated at room temperature for 30 min. Then, 100 µL CellTiter-Glo was added to each well of the plate and shaken on an orbital shaker for 5 min to fully lyse the cells. The plate was placed at room temperature for 20 min to stabilize the cold light signal, and the cold light value of each well was scanned with a multifunctional microplate reader (Molecular Devices, Spectramax M3) at full wavelength.
The compound of the present invention and ADU-S100 (MCE, Cat. No. #HY12885A) were used as controls: Clofarabine (Wuhu Huaren Technology, Cat. No. #HR-00701002), Cladribine (CSNpharm, Cat. No. #CSN10004), Gemcitabine Hydrochloride (Shaoyuan, Cat. No. #SY014538), Gemcitabine Prodrug LY2334737 (home-made). […]

CT26 cells [2] = test: CT26 syngeneic mouse bilateral transplanted tumor model; assay type: in vivo, BALB/c mice; conditions: for growth inhibition rates of left tumors: left (untreated) tumor, 50 µg compound/mouse (2.5 mg/kg) intratumorally into right flank on days 0 and 4, day 13 after treatment; for tumor growth inhibition rate: right (treated) tumor, 50 µg compound/mouse (2.5 mg/kg) intratumorally on days 0 and 4, 13 days post treatment
Protocol: When tumors grew to an average volume of 100 mm^3, treatments were randomized and started based on tumor size and mouse body weight. The first day of dosing was Day 0. Two doses were administered, 50 µg compound/mouse (i.e., 2.5 mg/kg) was injected intratumorally into the right flank on days 0 and 4, and the same volume of PBS (Hyclone Company, Cat. No. #SH30258.01) was used as a control. The left tumor was left untreated. Control mice were sacrificed after 13 days of dosing and treated mice were sacrificed 21 days later. During the experiment, the tumor volume and body weight were measured three times a week on the left and right sides, and the tumor volume was calculated as V = D × d × d/2 (wherein D represents the long diameter of the tumor and d represents the short diameter of the tumor).

A20 = test: Inhibition of tumor cell line proliferation (Table 3), A20; assay type: cell-based; conditions: A20, Mouse B lymphoma cells
4T1 = test: Inhibition of tumor cell line proliferation (Table 3), 4T1; assay type: cell-based; conditions: 4T1, Mouse breast cancer cells
SK-MEL5 = test: Inhibition of tumor cell line proliferation (Table 3), SK-MEL5; assay type: cell-based; conditions: SK-MEL-5; SK-MEL5, Human melanoma cells
B16F10 = test: Inhibition of tumor cell line proliferation (Table 3), B16F10; assay type: cell-based; conditions: B16-F10; B16F10, Mouse melanoma cells
Daudi = test: Inhibition of tumor cell line proliferation (Table 3), Daudi; assay type: cell-based; conditions: Human Burkitt's lymphoma cells
FaDu = test: Inhibition of tumor cell line proliferation (Table 3), FaDu; assay type: cell-based; conditions: Human pharyngeal squamous carcinoma cell
H22 = test: Inhibition of tumor cell line proliferation (Table 3), H22; assay type: cell-based; conditions: H22, Mouse hepatoma cells
A375 = test: Inhibition of tumor cell line proliferation (Table 3), A375; assay type: cell-based; conditions: A-375; A375, Human melanoma cells
MC38 = test: Inhibition of tumor cell line proliferation (Table 3), MC38; assay type: cell-based; conditions: MC-38; MC38, Mouse colon cancer cells
[3] = IFN-β secretion, 24 hours incubation, ELISA
[4] = Mus musculus, CT26, 120 hours incubation, CellTiter-Glo

In the case of `N.N.Nc1nc2c(ncn2C2OC3COP(=O)(S)OC4C(COP(=O)(S)OC2C3O)OC(n2cnc3c(N)nc(F)nc32)C4O)c(=O)[nH]1` (stereo not shown) [CDN-2, (2',3')-cyclo-(Rp,Rp)-[2'-O-thiophosphodiester-guanosine]-[3'-O-thiophosphodiester-2-fluoro-adenosine]diammonium salt], the “STING agonist activity (in words)” value (THP-1 cells) is reported as “significant STING agonist activity”, the EC50 (THP-1 cells; [3]) is reported as 1 to 10 µM and the “inhibitory ability on growth of CT26 tumor cells in vitro (in words)” value (“inhibitory ability on growth” for short) (CT26 cells [1]) is reported as “particularly significant inhibitory ability”.

In the case of `Nc1nc2c(ncn2[C@@H]2O[C@@H]3CO[P@@](=O)(S)O[C@H]4C[C@H](n5cnc6c(N)nc(Cl)nc65)O[C@@H]4CO[P@@](=O)(S)O[C@@H]2[C@@H]3O)c(=O)[nH]1` [CDN-4, (2',3')-cyclo-(Rp,Rp)-[2'-O-thiophosphodiester-guanosine]-[3'-O-thiophosphodiester-2-chloro-2'-deoxy-adenosine]diammonium salt], the “growth inhibition rates of left tumors” value (CT26 cells [2]) is reported as 75.3%, the “STING agonist activity (in words)” value (THP-1 cells) is reported as “significant STING agonist activity” and the EC50 (THP-1 cells; Homo sapiens, THP-1, 24 h) is reported as 1 to 10 µM. The IC50 (CT26 cells [1]; Mus musculus, CT26, 120 h) was 1 to 10 µM and the “inhibitory ability on growth” value (CT26 cells [1]) was “particularly significant inhibitory ability”.

`Nc1nc2c(ncn2[C@@H]2O[C@@H]3CO[P@](=O)(S)O[C@H]4[C@H](F)[C@H](n5cnc6c(N)nc(Cl)nc65)O[C@@H]4CO[P@@](=O)(S)O[C@@H]2[C@@H]3O)c(=O)[nH]1` [CDN-7, (2',3')-cyclo-(Rp,Sp)-[2'-O-thiophosphodiester-guanosine]-[3'-O-thiophosphodiester-2-chloro-2'-deoxy-2'-fluoro-beta-adenosine]diammonium salt] showed an EC50 (THP-1 cells; Homo sapiens, THP-1, 24 h) of 10.1 to 100 µM.

For `Nc1nc2c(ncn2[C@@H]2O[C@@H]3CO[P@@](=O)(S)O[C@H]4[C@H](F)[C@H](n5cnc6c(N)nc(Cl)nc65)O[C@@H]4CO[P@@](=O)(S)O[C@H]3[C@H]2O)c(=O)[nH]1` [CDN-5, (3',3')-cyclo-(Rp,Rp)-[3'-O-thiophosphodiester-guanosine]-[3'-O-thiophosphodiester-2-chloro-2'-deoxy-2'-fluoro-beta-adenosine]diammonium salt], the “growth inhibition rates of left tumors” value (CT26 cells [2]) was 71.7%, the “STING agonist activity (in words)” value (THP-1 cells) was “significant STING agonist activity” and the EC50 (THP-1 cells; Homo sapiens, THP-1, 24 h) was 1 to 10 µM. For the same compound, the IC50 (CT26 cells [1]; Mus musculus, CT26, 120 h) was 1 to 10 µM and the “inhibitory ability on growth” value (CT26 cells [1]) was “particularly significant inhibitory ability”.

`Nc1nc2c(ncn2C2OC3COP(=O)(S)OC4C(COP(=O)(S)OC2C3O)OC(n2cnc3c(N)ncnc32)C4F)c(=O)[nH]1` (stereo not shown) [CDN-11] was tested, and the “STING agonist activity (in words)” value (THP-1 cells) was “significant STING agonist activity” and the EC50 (THP-1 cells; Homo sapiens, THP-1, 24 h) was 1 to 10 µM.

`Nc1ccn([C@@H]2O[C@H](CO)[C@@H](O)C2(F)F)c(=O)n1` [Gemcitabine, Gemcitabine Hydrochloride, reference compound] gave an IC50 (CT26 cells [1]; [4]) of under 1 µM.

With `Nc1nc2c(ncn2C2OC3COP(=O)(S)OC4CC(n5cnc6c(N)ncnc65)OC4COP(=O)(S)OC3C2O)c(=O)[nH]1` (stereo not shown) [CDN-12] the “STING agonist activity (in words)” value (THP-1 cells) was “significant STING agonist activity” and the EC50 (THP-1 cells; Homo sapiens, THP-1, 24 h) was 1 to 10 µM.

With `Nc1nc(Cl)nc2c1ncn2[C@@H]1O[C@H](CO)[C@@H](O)[C@@H]1F` [Clofarabine, clofarabine, reference compound] the IC50 (CT26 cells [1]; [4]) was under 1 µM.

In the case of “(2',3')-cyclo-(Rp,Rp)-[2'-O-dithiophosphodiester-guanosine]-[3'-O-dithiophosphate diester -2-amino-3-methoxy-adenosine]diammonium salt [CDN-1]”, the EC50 (THP-1 cells; [3]) is reported as 10.1 to 100 µM and the “inhibitory ability on growth” value (CT26 cells [1]) is reported as “particularly significant inhibitory ability”.

For `CNc1nc(N)c2ncn([C@@H]3O[C@@H]4CO[P@@](=O)(S)O[C@@H]5[C@H](O)[C@@H](CO[P@@](=O)(S)O[C@H]4[C@@H]3F)O[C@H]5n3cnc4c(=O)[nH]c(N)nc43)c2n1` [CDN-8, (2',3')-cyclo-(Rp,Rp) - [2'-O-thiophosphodiester-guanosine]-[3'-O-thiophosphodiester-2-methylamino-2'-deoxy-2'-fluoro-beta-adenosine] diammonium salt], the “STING agonist activity (in words)” value (THP-1 cells) was “significant STING agonist activity”, the EC50 (THP-1 cells; Homo sapiens, THP-1, 24 h) was 1 to 10 µM and the IC50 (CT26 cells [1]; Mus musculus, CT26, 120 h) was 1 to 10 µM. The “inhibitory ability on growth” value (CT26 cells [1]) was “particularly significant inhibitory ability”.

For “(3',3')-cyclo-(Rp,Rp)-[3'-O-thiophosphodiester-guanosine]-[3'-O-thiophosphodiester-2-chloro-2'-deoxy-adenosine]diammonium salt [CDN-6]”, the “growth inhibition rates of left tumors” value (CT26 cells [2]) was 67.4%, the “tumor growth inhibition rate” value (CT26 cells [2]) was 99.5% and the “STING agonist activity (in words)” value (THP-1 cells) was “significant STING agonist activity”. For the same compound, the EC50 (THP-1 cells; [3]) was 1 to 10 µM, the IC50 (CT26 cells [1]; 120 hours incubation, CellTiter-Glo) was 1 to 10 µM and the “inhibitory ability on growth” value (CT26 cells [1]) was “particularly significant inhibitory ability”.

For `Nc1nc(Cl)nc2c1ncn2[C@H]1C[C@H](O)[C@@H](CO)O1` [Cladribine, cladribine, reference compound], the IC50 (CT26 cells [1]; [4]) was under 1 µM.

Work on `Nc1ncnc2c1ncn2[C@@H]1O[C@@H]2CO[P@@](=O)(S)O[C@@H]3[C@H](O)[C@@H](CO[P@@](=O)(S)O[C@H]2[C@H]1O)O[C@H]3n1cnc2c(N)ncnc21` [ADU-S100, reference compound] yielded an IC50 (A20) of 5.3 µM, an IC50 (4T1) of over 10 µM and an IC50 (SK-MEL5) of over 10 µM. For the same compound, the IC50 (B16F10) was over 10 µM, the IC50 (Daudi) was over 10 µM and the IC50 (FaDu) was over 10 µM. For the same compound, the “growth inhibition rates of left tumors” value (CT26 cells [2]) was 64.2%, the “tumor growth inhibition rate” value (CT26 cells [2]) was 99.1% and the EC50 (THP-1 cells; Homo sapiens, THP-1, 24 h) was 1 to 10 µM. It also gave an IC50 (H22) of over 10 µM, an IC50 (CT26 cells [1]; Mus musculus, CT26, 120 h) of over 10 µM and an IC50 (A375) of over 10 µM. For the same compound, the IC50 (MC38) was over 10 µM.
